Values after ≈ are worked out from the molar mass of the structure shown.
Experiments:
[1] = Distribution coefficient, single contact in tubes, 1.5 mol/L DEHiBA in Isane IP 185 vs nitric acid solutions (ICP-AES); format: physicochemical; details: HNO3 0.5 to 4 M, 25° C.
[2] = as above; format: physicochemical; details: nitric acid 4 mol/L, regardless of the uranium concentration, 25° C.
[3] = format: physicochemical; details: 1.5 mol/L DEHiBA in Isane IP 185, HNO3 0.5 to 4 M, 25° C.
[4] = format: physicochemical; details: 1.5 mol/L DEHiBA in Isane IP 185; aqueous 360 g/L uranium, 2 mol/L nitric acid; even after uranium depletion; 25° C.
[5] = Distribution coefficient, single contact in tubes, 1.5 mol/L DEHiBA in Isane IP 185 vs nitric acid solutions (ICP-AES); format: physicochemical; details: HNO3 0.5 to 4 M, 25° C.; remark: listed apart in the source
[6] = Solubility of DEHiBA in an aqueous phase by total organic carbon (TOC) measurement, test in mixers-decanters; format: physicochemical; details: for DEHiBA equivalent: assumes all organic carbon stems from the extractant
Source text: The solubility of DEHiBA in an aqueous phase was appreciated by conducting a test in mixers-decanters similar to the one described in Example 1 hereinbefore and by measuring the total organic carbon (or TOC) present in the aqueous phase exiting the battery 11 (called <<extraction raffinate>> hereafter) on the one hand and, in the aqueous phase exiting the battery 13 and containing the purified uranyl nitrate (called <<U production>> hereafter) on the other hand.
The total organic carbon was measured by means of a thermal TOC-meter in the aqueous phases as obtained after decantation, i.e. without submitting these phases to any centrifugation.

[7] = Distribution coefficient, single contact in tubes, 1.5 mol/L DEHiBA in Isane IP 185 vs nitric acid solutions (ICP-AES); format: physicochemical; details: HNO3 0.5 to 4 M, 25° C.; remark: listed apart in the source
[8] = as above; format: physicochemical; details: HNO3 0.5 to 4 M, 25° C.; remark: listed apart in the source
[9] = with or without 30 g/L uranium, 1 hour

For CCCCC(CC)CN(CC(CC)CCCC)C(=O)C(C)C (stereo not drawn) [DEHiBA, N,N-di-(2-ethylhexyl)isobutyramide], the “U/impurities separation factor (calcium)” value [1] was “greater than 10,000”, the “distribution coefficient of calcium” value [1, 9] was “less than 10^−3” and the “distribution coefficient of thorium(IV)” value [2] was “less than 5.10^−3”. For the same molecule, the “U/impurities separation factor (iron)” value [3] was “greater than 10,000”, the “distribution coefficient of iron” value [3, 9] was “less than 10^−3” and the “distribution coefficient of thorium 234, DTh” value [4] was “less than 10^−2”. The “U/impurities separation factor (vanadium)” value [5] was “greater than 10,000”, the “distribution coefficient of vanadium” value [5, 9] was “less than 10^−3” and the DEHiBA equivalent ([6]; U production, HNO3 0.34 mol/L) was 0.00019 mol/L. For the same molecule, the solubility ([6]; aqueous phase after decantation, under the conditions of the test, includes diluent (TPH) and carried-away organic phase, read-out: DEHiBA soluble in an aqueous phase) was 40 to 60 µg/mL (≈ 128 to 193 µM), the DEHiBA equivalent ([6]; extraction raffinate, HNO3 3.1 mol/L) was 0.00013 mol/L and the “U/impurities separation factor (zirconium)” value [7] was “greater than 10,000”. The “distribution coefficient of zirconium” value [7, 9] was “less than 10^−3”, the “U/impurities separation factor (molybdenum)” value [8] was “greater than 10,000” and the “distribution coefficient of molybdenum” value [8, 9] was “less than 10^−3”.
